# Source: patent publication US20050220996A1, “Process for coating a pharmaceutical particle” (priority 2002, published 2005)
# Details: magnetic stirrer, Tween 80 as wetting agent (FIG. 11)
# Source text: The dissolution behavior of NaCl in water was studied by measuring conductivity as a function of time while stirring at a constant rate using a magnetic stirrer. To ensure complete wetting, Tween 80 was used as a wetting agent.
substance,measurement,value
Sodium chloride [Uncoated],conductivity profile (dissolution in water),instantaneous conductivity profile
